Data taken from patent US20150216933A1, “HEMATOPOIETIC STEM CELL GROWTH FACTOR” (DUKE UNIVERSITY, priority 2008, published 2015).

Legend:
[1] = tested on: PI 3-kinase; assay type: cell-based, mouse
Description: In order to determine a potential mechanism through which PTN mediates HSC expansion, an examination was made as to whether PTN altered pathways that are known to be affected by RPTPβ/ζ (Meng et al, Proc Natl Acad Sci USA 97: 2603-8 (2000), Stoica et al, J Biol Chem 276:16772-9 (2001), Landgraf et al, J Biol Chem 283:25036-45 (2008), Deuel et al, Arch Biochem Biophys 397:162-71 (2002)). Canonical PTN signaling occurs via binding and inactivation of RPTPβ/ζ (Meng et al, Proc Natl Acad Sci USA 97: 2603-8 (2000)), which can facilitate the tyrosine phosphorylation of several intracellular substrates, including Akt and β-catenin (Souttou et al, J Biol Chem 272:19588-93 (1997), Gu et al, FEBS Lett 581:382-8 (2007)). […] BM 34^− KSL cells were treated with TSF with and without 100 ng/mL PTN in the presence and absence of 10 μM wortmannin, a PI 3-kinase inhibitor (Souttou et al, J Biol Chem 272:19588-93 (1997)).

[2] = tested on: Bone marrow lineage negative (lin-) progenitor cells; experiment: 7 day culture of bone marrow lin- progenitor cells with individual cytokines or TSF with and without PTN; assay type: cell-based; conditions: 7 days, individual cytokine
Protocol: Bone marrow lineage negative (lin-) progenitor cells were placed in culture for 7 days with 20 ng/mL thromobopoietin (TPO), 120 ng/mL stem cell factor (SCF) or 50 ng/mL Flt-3 ligand or the combination of all 3 cytokines (TSF) with and without 100 ng/mL pleiotrophin (PTN).

COC[C@H]1OC(=O)c2coc3c2[C@@]1(C)C1=C(C3=O)[C@@H]2CCC(=O)[C@@]2(C)C[C@H]1OC(C)=O [wortmannin]
reduction in BM KSL cell expansion compared to TSF+PTN alone [1]: 8.1 fold
reduction in total cell expansion compared to TSF+PTN alone [1]: 3.4 fold

SCF: stem cell factor, 120 ng/mL, with or without PTN
support of BM progenitor cells in culture [2]: modest expansion

thromobopoietin: cytokine, 20 ng/mL alone in culture
support of BM progenitor cells in culture [2]: Neither thromobopoietin alone nor Fit-3 ligand alone supported viable BM progenitor cells

B1: Fit-3 ligand: cytokine, 50 ng/mL alone in culture (protein, UniProt P49771 27-235, looked up)
Fms-related tyrosine kinase 3 …: TQDCSFQHSPISSDFAVKIRELSDYLLQDYPVTVASNLQDEELCGGLWRLVLAQRWMERLKTVAGSKMQGLLERVNTEIHFVTKCAFQPPPSCLRFVQTNISRLLQETSEQLVALKPWITRQNFSRCLELQCQPDSSTLPPPWSPRPLEATAPTAPQPPLLLLLLLPVGLLLLAAAWCLHWQRTRRRTPRPGEQVPPVPSPQDLLLVEH
support of BM progenitor cells in culture [2]: Neither thromobopoietin alone nor Fit-3 ligand alone supported viable BM progenitor cells
